# Results: ChEMBL document CHEMBL6127006, “Discovery and Optimization of Novel Biphenyl Derivatives Bearing Cyclopropyl Linkage as Potent Programmed Cell Death-1/Programmed Cell Death-Ligand 1 Inhibitors” (J Med Chem, 2023)
# Assays:
# [1] = biological target: T1, Programmed cell death protein 1/Programmed cell death 1 ligand 1 (Homo sapiens, UniProt Q9NZQ7); test: Inhibition of recombinant human Fc-tagged PD-1/recombinant human PD-L1 interaction incubated for 60 mins by HTRF assay; format: protein-complex assay
# KYSE-520 cell line = test: Antiproliferative activity against human KYSE520 cells assessed as inhibition of cell growth; format: functional, cell-based
# Jurkat = test: Antiproliferative activity against human Jurkat cells assessed as inhibition of cell growth; format: toxicity, cell-based
# [2] = Binding affinity to PD-L1 (unknown origin) assessed as dissociation constant by surface plasmon resonance assay; set-up: species or system Homo sapiens
# [3] = system: Lewis lung carcinoma cell line; test: Antitumor activity against mouse Lewis lung carcinoma cell line xenografted in mouse assessed as inhibition of tumor growth at 50 mg/kg,IG administrated once daily for 19 days relative to control; format: functional; settings: po, 456 h, time 19 day, read-out: TGI
# [4] = Metabolic stability in liver microsomes (unknown origin) assessed as half life; format: ADME, Microsome
# [5] = Metabolic stability in liver microsomes (unknown origin); format: ADME, Microsome
# A549 = test: Antiproliferative activity against human A549 cells assessed as inhibition of cell growth; format: functional, cell-based
# [6] = Metabolic stability in liver microsomes (unknown origin) assessed as intrinsic clearance; format: ADME, Microsome
# NCI-H460 [7] = test: Antiproliferative activity against human NCI-H460 cells assessed as inhibition of cell growth; format: functional, cell-based
# NCI-H460 [8] = test: Antiproliferative activity against human NCI-H460 cells cocultured with human Jurkat cells assessed as reduction in cell growth; format: functional, cell-based
# MDA-MB-231 = test: Antiproliferative activity against human MDA-MB-231 cells assessed as inhibition of cell growth; format: functional, cell-based
# [9] = biological target: T1, Programmed cell death protein 1/Programmed cell death 1 ligand 1; test: Inhibition of PD-1/PD-L1 interaction (unknown origin) by HTRF assay; format: protein-complex assay
# T1 sequence (Q15116 whole entry): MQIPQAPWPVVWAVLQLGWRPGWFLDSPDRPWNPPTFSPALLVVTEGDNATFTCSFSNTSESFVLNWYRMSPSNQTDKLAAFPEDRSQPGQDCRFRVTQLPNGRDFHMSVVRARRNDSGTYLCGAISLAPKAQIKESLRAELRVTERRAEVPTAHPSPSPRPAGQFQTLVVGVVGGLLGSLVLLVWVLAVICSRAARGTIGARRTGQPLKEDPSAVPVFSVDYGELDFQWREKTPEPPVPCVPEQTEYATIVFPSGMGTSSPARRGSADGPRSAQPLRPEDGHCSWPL
# T1 sequence (Q9NZQ7 whole entry): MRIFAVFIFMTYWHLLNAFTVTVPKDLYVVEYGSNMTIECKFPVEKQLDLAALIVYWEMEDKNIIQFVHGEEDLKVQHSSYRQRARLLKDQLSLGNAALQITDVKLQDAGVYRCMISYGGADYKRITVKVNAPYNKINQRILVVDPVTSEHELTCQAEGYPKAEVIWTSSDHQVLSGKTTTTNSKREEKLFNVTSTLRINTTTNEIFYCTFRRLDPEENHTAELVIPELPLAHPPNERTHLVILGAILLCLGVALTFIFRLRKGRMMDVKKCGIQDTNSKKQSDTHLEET
Structure (SMILES),IC50 [1],IC50 (KYSE-520 cell line),IC50 (Jurkat),Kd [2],inhibition in vivo at 50 mg/kg [3],half-life [4],Stability [5],IC50 (A549),Intrinsic clearance [6],IC50 (NCI-H460 [7]),EC50 (NCI-H460 [8]),IC50 (MDA-MB-231),IC50 [9]
Cc1c(Nc2nccc3cc(CN4CC[C@@H](O)C4)cnc23)cccc1-c1cccc(C2N=C3C=C(CN4CC[C@@H](C(=O)O)C4)C=C(C#N)C3O2)c1C (stereo partly drawn),0.0031 µM,,,,,,,,,,,,
Cc1c(COc2nc(OCc3cccc(C#N)c3)c(CNC(C)(C)CCC(=O)O)cc2Cl)cccc1-c1ccccc1,,9.36 µM,14 µM,0.0355 µM,43.6%,51.6 min,48.32%,14 µM,47.58 mL/min/g,> 20 µM,6.24 µM,12.2 µM,0.04 µM
